# Measured values: US11207285B2, “Diabetes treatment regimens using alpha, alpha-substituted long-chain amphipathic carboxylates” (SYNDROMEX LTD., priority 2016, dated 2021)
# Tests used:
# [1] = molecular target: Signal transducer and activator of transcription 3 (STAT3) (Homo sapiens, UniProt P40763); experiment: transcriptional activity of STAT3
# animal models = experiment: plasma lipid lowering in animal models; type: in vivo
# [2] = molecular target: T1, Hepatocyte nuclear factor 4-alpha (HNF4α) (Homo sapiens, UniProt P41235); experiment: transcriptional activity of HNF4α
# T1 sequence (P41235 1-474): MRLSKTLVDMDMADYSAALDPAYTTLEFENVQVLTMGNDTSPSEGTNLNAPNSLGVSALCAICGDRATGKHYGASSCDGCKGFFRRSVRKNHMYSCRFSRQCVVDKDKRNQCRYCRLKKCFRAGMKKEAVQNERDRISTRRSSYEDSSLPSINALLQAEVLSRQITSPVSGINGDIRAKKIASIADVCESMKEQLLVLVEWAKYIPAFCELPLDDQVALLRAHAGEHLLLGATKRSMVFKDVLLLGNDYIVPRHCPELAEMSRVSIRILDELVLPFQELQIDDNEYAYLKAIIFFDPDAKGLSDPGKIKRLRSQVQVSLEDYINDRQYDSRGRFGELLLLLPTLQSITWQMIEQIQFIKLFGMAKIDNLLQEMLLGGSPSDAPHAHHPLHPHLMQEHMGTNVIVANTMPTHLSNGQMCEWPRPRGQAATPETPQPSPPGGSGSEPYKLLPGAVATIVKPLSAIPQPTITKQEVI
# Sequence of Signal transducer and activator of transcription 3 (STAT3) (P40763 whole entry, species assumed): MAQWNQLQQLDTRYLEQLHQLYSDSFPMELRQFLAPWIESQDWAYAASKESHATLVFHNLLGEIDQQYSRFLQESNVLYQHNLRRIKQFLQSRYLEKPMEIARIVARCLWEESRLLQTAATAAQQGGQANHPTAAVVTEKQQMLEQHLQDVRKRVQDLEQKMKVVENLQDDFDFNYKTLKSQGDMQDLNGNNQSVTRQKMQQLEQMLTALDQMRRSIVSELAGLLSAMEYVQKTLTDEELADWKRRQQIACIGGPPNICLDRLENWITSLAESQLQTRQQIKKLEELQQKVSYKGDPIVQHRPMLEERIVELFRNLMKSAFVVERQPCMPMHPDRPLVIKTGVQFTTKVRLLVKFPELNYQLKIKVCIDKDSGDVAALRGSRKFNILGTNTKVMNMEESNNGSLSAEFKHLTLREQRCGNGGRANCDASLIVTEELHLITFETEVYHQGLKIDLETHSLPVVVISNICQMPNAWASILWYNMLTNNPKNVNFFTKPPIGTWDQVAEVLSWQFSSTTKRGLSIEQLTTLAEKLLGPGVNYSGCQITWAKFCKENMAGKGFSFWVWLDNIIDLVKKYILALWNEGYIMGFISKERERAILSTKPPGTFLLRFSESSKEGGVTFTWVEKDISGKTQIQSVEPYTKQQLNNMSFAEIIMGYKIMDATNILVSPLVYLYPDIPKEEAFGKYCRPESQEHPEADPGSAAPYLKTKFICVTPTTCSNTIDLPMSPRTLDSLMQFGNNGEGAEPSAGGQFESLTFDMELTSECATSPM
smiles,measurement,setting,value
"CC(C)(CCCCCCCCCCCCC(C)(C)C(=O)O)C(=O)O [M16αα, 2,2,15,15-tetramethyl-hexadecane-1,16-dioic acid]",transcriptional activity of STAT3,[1],suppressing
same,plasma LDL-cholesterol,animal models,statin-like efficacy in lowering plasma LDL-cholesterol
same,plasma triglycerides,animal models,robust decrease of plasma triglycerides
same,transcriptional activity of HNF4α,[2],suppressing
